The values that follow come from patent US20230382916A1, “HETEROARYL HETEROCYCLIC COMPOUNDS AND USES THEREOF” (HUTCHISON MEDIPHARMA LIMITED, priority 2020, published 2023).

The test system of data set [1] is rat arthritis model induced by type II collagen. In words: Rat arthritis model induced by type II collagen (CIA), paw volume. The format is in vivo. The settings on record: for inhibition ratio of area under the curve (IRAUC) of paw swelling: Day 13 to Day 19. On the procedure:
An appropriate amount of bovine type II collagen (CII, Chondrex (Redmond, WA, USA), Cat #20021) was weighed and dissolved in 0.1 mole of acetic acid (SPGC Sinopharm Chemical Reagent Co., Ltd (Shanghai, P.R. China), Cat #: 10000218.), which was formulated into a solution with a concentration of 6 mg/mL, stirred at 4° C. overnight, and added with an equal volume of Freund's incomplete adjuvant (Sigma-Aldrich. (St. Louis, MO, USA), Cat #: SLBW0366.), fully emulsified to prepare an emulsion with a CII concentration of 3 mg/mL.
Female Lewis rats were purchased from Beijing Vital River Laboratory Animal Technology Co., Ltd. (certificate number 20200928Aazz0619000579, initial body weight of 110-130 grams), and 6 rats were randomly selected as a normal group; and all of the remaining rats were immunized. In the first immunization on day 0, the rats except those in the normal group were anesthetized with isoflurane (Hebei Yipin Pharmaceutical Co., Ltd., Lot: C002170601.), and then disinfected with 75% alcohol, and 0.2 mL of emulsion was injected intradermally at the base of the tail thereof. A second challenge was carried out on day 7, and 0.2 mL of emulsion was intradermally injected using the same method. Once the animals developed symptoms on day 10, the incidence conditions thereof were closely monitored.
After grouping, the normal group was not administered, and the rats in the other groups were administered with the control vehicle, 0.25 mg/kg and 4 mg/kg of the reference GDC-0853, and each dose of compound 1 orally once a day until the end of the experiment.
The paw volume was measured on day 10 after immunization, and the left and right hind paw volumes (V) were measured every day after the paw volume increase was detected.
The arthrosis paw volumes of the left and right hind limbs of each animal were measured, and the average paw volume (APV) was calculated according to the following formula:
Average paw volume APV=(Vleft+Vright)/2
The average arthrosis paw volume of each animal before administration was used as the baseline (or considered […] of inflammation). The averaged paw swelling (APS) of each animal is calculated according to the following formula, wherein, APVd1 is the average paw volume of the animal administered on day 1, and APVdt is the average paw volume of the animal administered on day t:
The averaged paw swelling APSdt=(APVdt−APVd1)
The area under the curve (AUC) of the average paw volume swelling is the area under the curve of the arthrosis score swelling calculated by the trapezoid method, and the calculation formula is:
AUCAPS=½×(APSd1+APSd2)×(d2−d1)+½×(APSd2+APSd3)×(d3−d2)+ . . . +½×(APSdn+APSd(n-1))×(dn−dn-1).
Inhibition ratio IRAUC%=(Mean AUCAPS in the model group−AUCAPS in the drug-treated group)/(Mean AUCAPS in the model group−Mean AUCAPS in the normal group)×100%.

Data set [2] is described as follows: Stability test in liver microsomes (mouse). Format: in vitro ADME. The settings on record: mouse liver microsomes 0.5 mg/mL, 1 μM compound. On the procedure: Both male CD-1 mouse pooled liver microsomes and male SD rat pooled liver microsomes were purchased from BioreclamationIVT Corporation, USA.
The test compound stock solution was diluted with an organic solvent (usually a mixture of acetonitrile, methanol and water with various ratios, depending on the solubility of the compound, if necessary, 1 N hydrochloric acid or 1 N sodium hydroxide would be added to facilitate solubilization) to the 0.1 mM (the final concentration of the compound in the reaction system was 1 μM) and the concentration percentage of the organic solvents in the incubation system no more than 1% (wherein the percentage of DMSO was required to be no more than 0.1%). An appropriate amount of 100 mM NADP, 500 mM G-6-P and 100 Unit/mL G-6-PDH were mixed and diluted with ultrapure water (the final system contains 1 mM NADP, 5 mM G-6-P and 1 Unit/mL G-6-PDH), pre-incubated in a 37° C. water bath for 10 minutes and then placed on ice for use as a NADPH regeneration solution. 20 mg/mL liver microsomes solution and 200 mM phosphate buffer were mixed, and diluted with ultrapure water to give a liver microsomes solution containing 2.5 mg/mL liver microsomes (the final concentration of the reaction system is 0.5 mg/mL) and 50 mM phosphate buffer. The diluted liver microsomes solution was mixed with 0.1 mM compound solution, a mixture of 100 mM EDTA, 300 mM MgCl2 solution, 200 mM phosphate buffer (the final system was 3 mM MgCl2, 1 mM EDTA and 50 mM phosphate buffer) and water in an appropriate volume was added. Finally, the NADPH regeneration solution was added, then the reaction solution was placed in a 37° C. water bath to start the reaction (the reaction time was 30 minutes), and the reaction was stopped by adding the ice-cold acetonitrile reaction stopping solution containing the internal standard. The 0-minute sample was not incubated in a 37° C. water bath, and its difference from the 30-minute sample further lies in that the ice-cold acetonitrile reaction stopping solution containing the internal standard was added first, and then the NADPH regeneration solution was added. The sample added with the reaction stopping internal standard solution was vortexed and mixed well, and then centrifuged at 4400 rpm for 10 minutes. The supernatant was taken and diluted ten times with 50% methanol for LC-MS/MS analysis.
LC-MS/MS was used to determine the concentration of the compound in the sample. The percentage of the remaining compound after 30 minutes of incubation comparing with that in the 0-minute sample was calculated using the peak area ratio of the compound to the internal standard as an indicator, to evaluate the metabolic stability of the compound.
(In general: Liver microsomes are a subcellular fraction often used to study metabolism.)

For `C[C@H]1CN(C2COC2)C[C@H](C)N1c1ccc(Nc2cc(-c3ccnc(-n4ccn5c6c(cc5c4=O)CC(C)(C)C6)c3CO)cn(C)c2=O)nc1` [Compound 1, 2-(5-((5-((2S,6S)-2,6-dimethyl-4-(oxetan-3-yl)piperazin-1-yl)pyridin-2-yl)amino)-3′-(hydroxymethyl)-1-methyl-6-oxo-1,6-dihydro-[3,4′-bipyridin]-2′-yl)-7,7-dimethyl-7,8-dihydro-2H-cyclopenta[4,5]pyrrolo[1,2-a]pyrazin-1(6H)-one], the results for the “inhibition ratio of area under the curve (IRAUC) of paw swelling” value in data set [1] (0.06 mg/kg oral QD), in data set [1] (0.25 mg/kg oral QD) and in data set [1] (4 mg/kg oral QD) were 76.2%, 83.1% and 200.2%, respectively. The “effect on paw volume compared with vehicle control group” value in data set [1] (0.25 mg/kg oral QD) and in data set [1] (4 mg/kg oral QD) was “significantly increase the continuous improvement of paw volume swelling” throughout. In data set [1] (oral QD, paw swelling), this compound had a minimum effective dose of 0.06 mg/kg/day. Moreover, in data set [2], the “MLM, percentage of the remaining compound after 30 minutes of incubation” value is recorded as 91.6%.
